{
  "source": "patent US8017581B1",
  "about": "“MSH-agonist tripeptide conjugates” (Centre National de la Recherche Scientifique (CNRS), priority 2004, dated 2011)",
  "key": {"MC1 receptor [1]": {"target": "T1, MC1 receptor (Homo sapiens, UniProt Q01726)", "T1 construct": "endogenous in cells; host or cells: M4Be human melanocyte cell line", "T1 sequence (Q01726 whole entry)": "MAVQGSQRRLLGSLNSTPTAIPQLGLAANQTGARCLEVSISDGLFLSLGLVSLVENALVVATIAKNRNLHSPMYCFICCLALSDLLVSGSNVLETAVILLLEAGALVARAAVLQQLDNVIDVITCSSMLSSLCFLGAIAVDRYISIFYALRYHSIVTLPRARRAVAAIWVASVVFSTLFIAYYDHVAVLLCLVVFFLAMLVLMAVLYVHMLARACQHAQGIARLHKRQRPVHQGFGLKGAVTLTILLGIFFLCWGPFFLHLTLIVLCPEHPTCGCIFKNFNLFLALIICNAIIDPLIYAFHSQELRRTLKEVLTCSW", "experiment": "cAMP production in M4Be human melanocyte cells (EC50 determination)", "assay_type": "cell-based", "conditions": "mean of at least two sets of independent experiments", "protocol": "The M4Be human cell line (Jacubovich et al. Cancer Immunol. Immunother. 1979, 7, 59-64), a melanocyte cell line capable of producing melanins, was used in this study to determine the EC50 values.\nThe cells were maintained in Dulbecco's modified Eagle medium, with 10% of FCS, 1 mM of glutamine, 100 U/ml of penicillin and 10^−4 g/ml of streptomycin. All the cell lines were maintained at 37° C. in a 5% CO2 atmosphere, and the cell culture media were renewed every two days. The cells were plated onto a 96-well plate (Nunc, Roskilde, Denmark) 24 hours before contact with the peptides.\n(§1) Briefly, the cells plated out the day before were incubated for 1 hour with 10^−4 M of adenine (Sigma) and then for 10 minutes in Krebs Ringer Hepes medium with 10^−4 M of isobutyl-1-methylxanthine (Sigma), 10^−4 M of 4-[(3-butoxy-4-methoxyphenyl)methyl]-2-imidazolidinone (Calbiochem) and tripeptides according to the invention, at 10^−7 M.\n(§2) After this period of time, cell lysis was carried out according to the manufacturer's protocol.\nThe cAMP content was measured using a competition binding assay kit (RPN225, Amersham Pharmacia Biotech) according to the manufacturer's instructions. Each independent experiment was carried out at least twice in triplicate.\nDetermination of the EC50:\nThe curves were adjusted and the EC50 values were determined with nonlinear regression in the GraphPad Prism (GraphPad software). Each EC50 value was the mean of at least two sets of independent experiments."}, "MC1 receptor [2]": {"target": "T2, MC1 receptor (Mus musculus, UniProt Q01727)", "T2 construct": "The Cloudman S91 mouse melanoma cell line (Yasumara et al. Science. 154, pages 1186-1189) was used for the preliminary screening; endogenous in cells; host or cells: Cloudman S91 mouse melanoma cells", "T2 sequence (Q01727 whole entry)": "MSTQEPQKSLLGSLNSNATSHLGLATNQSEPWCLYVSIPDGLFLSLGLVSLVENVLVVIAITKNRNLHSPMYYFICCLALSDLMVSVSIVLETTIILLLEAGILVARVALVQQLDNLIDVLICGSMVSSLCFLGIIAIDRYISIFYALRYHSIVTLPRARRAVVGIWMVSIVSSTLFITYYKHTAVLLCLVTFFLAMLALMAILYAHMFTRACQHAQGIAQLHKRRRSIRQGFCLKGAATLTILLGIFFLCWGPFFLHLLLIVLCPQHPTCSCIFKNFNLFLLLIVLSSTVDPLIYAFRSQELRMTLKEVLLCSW", "experiment": "cAMP induction on Cloudman S91 mouse melanoma cell line (preliminary screening)", "assay_type": "cell-based", "conditions": "tripeptide at 50 nM, percentage of the maximum response with control peptide (1) at 50 nM", "protocol": "The Cloudman S91 mouse melanoma cell line (Yasumara et al. Science. 154, pages 1186-1189) was used for the preliminary screening. The cells were maintained in HAM F10 with 10% of horse serum, 2% of fetal calf serum (FCS), 1 mM of glutamine, 100 U/ml of penicillin and 10^−4 g/ml of streptomycin (Eurobio, Les Ulis, France). All the cell lines were maintained at 37° C. in a 5% CO2 atmosphere, and the cell culture media were renewed every two days. The cells were plated out onto a 96-well plate (Nunc, Roskilde, Denmark) 24 hours before contact with the peptides.\nas §1, §2\nThe cAMP content was measured using a competition binding assay kit (RPN225, Amersham Pharmacia Biotech) according to the manufacturer's instructions. […]\nThus, 1 tripeptide according to the invention was tested, at a concentration of 50 nM, on the induction of cAMP, which was calculated with respect to the response of cAMP production induced by α-MSH (50 nM)."}},
  "note": "Non-standard residues stand in square brackets, D forms with d. Residues, ends and D or L forms follow the SMILES beside them. *: point of attachment. Palmitoyl = CCCCCCCCCCCCCCCC(=O)*; Nle = CCCC[C@H](N)C(=O)O",
  "data": [
    {"smiles": "CCCC[C@H](NC(C)=O)C(=O)N[C@@H](C)C(=O)N[C@@H](Cc1c[nH]cn1)C(=O)N[C@H](Cc1ccccc1)C(=O)N[C@@H](CCCNC(=N)N)C(=O)N[C@@H](Cc1c[nH]c2ccccc12)C(N)=O", "note": "[control peptide, Ac-Nle-Ala-His-(D)Phe-Arg-Trp-NH2, reference compound] (Ac-[Nle]AH[dF]RW-NH2)", "values": [
      {"measurement": "EC50", "setting": "MC1 receptor [1]", "value": 4, "unit": "nM"}
    ]},
    {"smiles": "CCCCCCCCCCCCCCCC(=O)N[C@@H](Cc1c[nH]cn1)C(=O)N[C@H](Cc1ccccc1)C(=O)N[C@@H](CCCNC(=N)N)C(N)=O", "note": "[tripeptide 1, Palm-His-DPhe-Arg-NH2] (Palmitoyl-His-[dF]-Arg-NH2)", "values": [
      {"measurement": "EC50", "setting": "MC1 receptor [1]", "value": 2.3, "unit": "nM"},
      {"measurement": "% cAMP induction", "setting": "MC1 receptor [2]", "value": 147, "unit": "%"}
    ]},
    {"smiles": "CCCCCCCCCCCCCCCC(=O)N[C@@H](Cc1c[nH]cn1)C(=O)N[C@H](Cc1ccccc1)C(=O)N[C@@H](Cc1c[nH]c2ccccc12)C(N)=O", "note": "[tripeptide 2, Palm-His-DPhe-Trp-NH2] (Palmitoyl-His-[dF]-Trp-NH2)", "values": [
      {"measurement": "EC50", "setting": "MC1 receptor [1]", "value": 17.3, "unit": "nM"}
    ]}
  ]
}
